The subject of assay [1] is Escherichia coli. The assay can be described thus: Binding affinity to Escherichia coli 16S rRNA A-site model at Ec2AP1492 position assessed as shorter rotational correlation time by time resolved fluorescence anisotropy.
The subject of assay [2] is Escherichia coli. The assay can be described thus: Antitranslation activity in Escherichia coli extract rRNA S30 assessed as inhibition of luciferase expression by transcription-translation assay. It is filed as functional.
Assay [3] relates to Escherichia coli. The assay can be described thus: Antibacterial activity against Escherichia coli DH5-alpha after 24 hrs by broth dilution assay. The note with it: DH5alpha. It is filed as functional.
For assay [4], the system named is Escherichia coli. The assay can be described thus: Binding affinity to Escherichia coli 16S rRNA A-site model at Ec2AP1493 position assessed as shorter rotational correlation time by time resolved fluorescence anisotropy. (In fluorescence polarisation assays a small probe gives low polarisation when free and higher when bound to something large.)
Assay [5] concerns Escherichia coli. The assay can be described thus: Binding affinity to Escherichia coli 16S rRNA A-site model at Ec2AP1492 position assessed as two rotational correlation time by time resolved fluorescence anisotropy.
The test system of assay [6] is Escherichia coli. The assay can be described thus: Binding affinity to Escherichia coli 16S rRNA A-site model at Ec2AP1493 position assessed as two rotational correlation time by time resolved fluorescence anisotropy.

Converted amounts (≈) assume the structure as drawn.

The IC50 is the concentration that gives 50% inhibition. As usually defined, the MIC is the lowest concentration found to suppress growth. Read a low MIC as greater potency.

Consider `NC[C@@H]1O[C@H](O[C@@H]2[C@@H](O)[C@H](O[C@@H]3[C@@H](O)[C@H](N)C[C@H](N)[C@@H]3O[C@H]3O[C@H](CN)[C@@H](O)[C@H](O)[C@H]3N)O[C@@H]2CO)[C@H](N)[C@@H](O)[C@@H]1O`, for which the Activity with Escherichia coli [1] amounted to 2.35 nanoseconds; in the assay with Escherichia coli [4] it was 1.96 nanoseconds; in the assay on Escherichia coli [5] it was 7.32 nanoseconds; in the assay with Escherichia coli [6] it was 5.32 nanoseconds. For the same compound, the IC50 in the assay on Escherichia coli [2] was 50 nM. 1.9 µg/mL (≈ 3.09 µM) was the least that counted as inhibitory in the assay with Escherichia coli [3] (MIC).
Regarding `NC[C@@H]1O[C@H](O[C@@H]2[C@@H](O)[C@@H]3OC4[C@@H](O)[C@H](N)C[C@H](N)[C@H]4O[C@H]4O[C@H](CN)[C@@H](O)[C@H](O)[C@H]4NC[C@H]2O3)[C@H](N)[C@@H](O)[C@@H]1O` (some centres not stated), the Activity in the assay with Escherichia coli [1] was determined as 0.76 nanoseconds; with Escherichia coli [4], 0.65 nanoseconds; with Escherichia coli [5] it was 4.38 nanoseconds; in the assay on Escherichia coli [6], 3.95 nanoseconds. Moreover, the IC50 in the assay on Escherichia coli [2] is 1100 nM. In the assay with Escherichia coli [3], 119 µg/mL (≈ 199 µM) was the least that counted as inhibitory (MIC).
